Key:
Assay in all cases: relative viability (nuclei count vs DMSO), 5 days (fraction); higher = more cells survive
NCI-H1915 = test system: NCI-H1915
How it was run: (§1)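 Relative viability divides the nuclei count in treated wells by that in vehicle wells. Lung cancer cell lines were seeded in 1536-well plates, dosed by pin tool the next day, and fixed and stained after 5 days in one step with final 0.05% Triton X-100, 1% formaldehyde and 1 ug/ml Hoechst. Dosing was a single drug or a fixed anchor-drug dose plus five library-drug doses (not always all listed) in √10 steps, and values are medians of duplicate plates imaged at 4×.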

EPLC-272H = test system: EPLC-272H
How it was run: as §1

COR-L 105 = test system: COR-L 105
How it was run: as §1

UMC-11 = test system: UMC-11
How it was run: as §1

NCI-H1755 = test system: NCI-H1755
How it was run: as §1

SK-LU-1 = test system: SK-LU-1
How it was run: as §1

LCLC-97TM1 = test system: LCLC-97TM1
How it was run: as §1

NCI-H1792 = test system: NCI-H1792
How it was run: as §1

NCI-H358 = test system: NCI-H358
How it was run: as §1

HOP-62 = test system: HOP-62
How it was run: as §1

LXF-289 = test system: LXF-289
How it was run: as §1

Clc1ccc(Nc2nnc(Cc3ccncc3)c3ccccc23)cc1 [Vatalanib] + CS(=O)(=O)CCNCc1ccc(-c2ccc3ncnc(Nc4ccc(OCc5cccc(F)c5)c(Cl)c4)c3c2)o1 [Lapatinib] (partner 2 µM)
relative viability (NCI-H1915; first compound 0.04 µM): 0.974
relative viability (NCI-H1915; first compound 0.1265 µM): 0.88
relative viability (NCI-H1915; first compound 0.4 µM): 0.839
relative viability (NCI-H1915; first compound 1.265 µM): 0.93
relative viability (NCI-H1915; first compound 4 µM): 1.01
relative viability (EPLC-272H; first compound 0.04 µM): 0.931
relative viability (EPLC-272H; first compound 0.1265 µM): 0.9
relative viability (EPLC-272H; first compound 0.4 µM): 0.23
relative viability (EPLC-272H; first compound 1.265 µM): 0.985
relative viability (EPLC-272H; first compound 4 µM): 1.01
relative viability (COR-L 105; first compound 0.04 µM): 0.375
relative viability (COR-L 105; first compound 0.1265 µM): 0.301
relative viability (COR-L 105; first compound 0.4 µM): 0.404
relative viability (COR-L 105; first compound 1.265 µM): 0.358
relative viability (COR-L 105; first compound 4 µM): 0.353
relative viability (UMC-11; first compound 0.04 µM): 0.924
relative viability (UMC-11; first compound 0.1265 µM): 0.941
relative viability (UMC-11; first compound 0.4 µM): 0.976
relative viability (UMC-11; first compound 1.265 µM): 0.975
relative viability (UMC-11; first compound 4 µM): 1.13
relative viability (NCI-H1755; first compound 0.04 µM): 1.02
relative viability (NCI-H1755; first compound 0.1265 µM): 1.02
relative viability (NCI-H1755; first compound 0.4 µM): 1.09
relative viability (NCI-H1755; first compound 1.265 µM): 0.946
relative viability (NCI-H1755; first compound 4 µM): 0.951
relative viability (SK-LU-1; first compound 0.04 µM): 0.963
relative viability (SK-LU-1; first compound 0.1265 µM): 0.875
relative viability (SK-LU-1; first compound 0.4 µM): 1.21
relative viability (SK-LU-1; first compound 1.265 µM): 0.885
relative viability (SK-LU-1; first compound 4 µM): 0.848
relative viability (LCLC-97TM1; first compound 0.04 µM): 0.818
relative viability (LCLC-97TM1; first compound 0.1265 µM): 0.847
relative viability (LCLC-97TM1; first compound 0.4 µM): 0.841
relative viability (LCLC-97TM1; first compound 1.265 µM): 0.897
relative viability (LCLC-97TM1; first compound 4 µM): 0.971
relative viability (NCI-H1792; first compound 0.04 µM): 0.892
relative viability (NCI-H1792; first compound 0.1265 µM): 0.852
relative viability (NCI-H1792; first compound 0.4 µM): 0.966
relative viability (NCI-H1792; first compound 1.265 µM): 0.87
relative viability (NCI-H1792; first compound 4 µM): 0.877
relative viability (NCI-H358; first compound 0.04 µM): 0.498
relative viability (NCI-H358; first compound 0.1265 µM): 0.429
relative viability (NCI-H358; first compound 0.4 µM): 0.564
relative viability (NCI-H358; first compound 1.265 µM): 0.355
relative viability (NCI-H358; first compound 4 µM): 0.457
relative viability (HOP-62; first compound 0.04 µM): 1.13
relative viability (HOP-62; first compound 0.4 µM): 1.06
relative viability (HOP-62; first compound 1.265 µM): 0.827
relative viability (HOP-62; first compound 4 µM): 0.989
relative viability (LXF-289; first compound 0.04 µM): 0.959
relative viability (LXF-289; first compound 0.1265 µM): 0.82
relative viability (LXF-289; first compound 0.4 µM): 0.98
relative viability (LXF-289; first compound 1.265 µM): 0.891
relative viability (LXF-289; first compound 4 µM): 0.904

From the supplement of paper PMC10307832
